Measurements reported in PMC7038226, “Discovery of Novel Inhibitors Targeting Multi-UDP-hexose Pyrophosphorylases as Anticancer Agents” (Molecules, 2020).

Experiments:
Format in all cases: biochemical
AGX1/UAP1 = target: T1, AGX1/UAP1 (Homo sapiens, UniProt Q16222); test: enzyme inhibition assay; settings: one value stated for GALT, UGP2 and AGX1/UAP1 together
T1 construct: full-length, cDNA from HepG2 cells, pET30A(+) in E. coli HMS174(DE3), Ni-NTA purified

GALT [1] = target: T2, GALT (Homo sapiens, UniProt P07902); test: enzyme inhibition assay
T2 construct: recombinant, expressed in E. coli HMS174(DE3), Ni-NTA purified; plasmid from earlier work
Source text: enzyme inhibition assay on GALT | GAL-012, that inhibit a small family of UDP-hexose pyrophosphorylases-galactose pyro-phosphorylase (GALT)

GALT [2] = target: T2, GALT; test: initial velocities, Lineweaver-Burk
UGP2 [3] = target: T3, UGP2 (Homo sapiens, UniProt Q16851); test: enzyme inhibition assay
T3 construct: recombinant, expressed in E. coli HMS174(DE3), Ni-NTA purified; plasmid from earlier work
T3 sequence (Q16851 1-508): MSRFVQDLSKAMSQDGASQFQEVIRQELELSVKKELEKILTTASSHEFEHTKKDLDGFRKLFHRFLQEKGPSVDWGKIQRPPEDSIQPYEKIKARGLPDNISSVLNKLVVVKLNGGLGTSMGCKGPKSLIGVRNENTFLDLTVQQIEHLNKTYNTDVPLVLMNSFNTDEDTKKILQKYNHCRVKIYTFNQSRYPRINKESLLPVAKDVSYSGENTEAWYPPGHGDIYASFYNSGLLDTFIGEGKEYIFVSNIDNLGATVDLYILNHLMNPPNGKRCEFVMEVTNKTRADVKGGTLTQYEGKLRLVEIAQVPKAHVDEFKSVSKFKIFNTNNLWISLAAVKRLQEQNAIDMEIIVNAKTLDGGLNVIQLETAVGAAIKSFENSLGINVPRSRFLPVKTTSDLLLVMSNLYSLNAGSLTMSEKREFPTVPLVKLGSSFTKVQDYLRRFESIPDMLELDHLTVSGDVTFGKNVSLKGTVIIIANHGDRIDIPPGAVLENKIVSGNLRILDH
Source text: enzyme inhibition assay on UGP2 | UDP-glucose pyrophosphorylase (UGP2)

UGP2 [4] = target: T3, UGP2; test: enzyme inhibition assay; settings: residual activity, not per cent inhibition; inhibitor 25 µM printed for GAL-012, assumed for analogue; 5 min preincubation
Source text: enzyme inhibition assay on UGP2

GALT [5] = target: T2, GALT; test: enzyme inhibition assay; settings: residual activity, not per cent inhibition; inhibitor 25 µM printed for GAL-012, assumed for analogue; 5 min preincubation
Source text: enzyme inhibition assay on GALT

T2 sequence (P07902 whole entry): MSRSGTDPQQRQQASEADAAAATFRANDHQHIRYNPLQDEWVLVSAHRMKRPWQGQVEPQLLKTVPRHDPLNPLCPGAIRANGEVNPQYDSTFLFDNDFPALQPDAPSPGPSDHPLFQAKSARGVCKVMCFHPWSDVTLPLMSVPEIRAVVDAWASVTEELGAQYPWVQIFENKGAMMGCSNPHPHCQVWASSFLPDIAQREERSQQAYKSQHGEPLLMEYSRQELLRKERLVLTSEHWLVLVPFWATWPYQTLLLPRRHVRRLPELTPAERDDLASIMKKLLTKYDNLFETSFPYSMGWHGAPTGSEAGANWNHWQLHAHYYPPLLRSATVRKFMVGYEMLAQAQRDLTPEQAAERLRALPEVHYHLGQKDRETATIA
T1 sequence (Q16222 1-505 isoform Q16222-2): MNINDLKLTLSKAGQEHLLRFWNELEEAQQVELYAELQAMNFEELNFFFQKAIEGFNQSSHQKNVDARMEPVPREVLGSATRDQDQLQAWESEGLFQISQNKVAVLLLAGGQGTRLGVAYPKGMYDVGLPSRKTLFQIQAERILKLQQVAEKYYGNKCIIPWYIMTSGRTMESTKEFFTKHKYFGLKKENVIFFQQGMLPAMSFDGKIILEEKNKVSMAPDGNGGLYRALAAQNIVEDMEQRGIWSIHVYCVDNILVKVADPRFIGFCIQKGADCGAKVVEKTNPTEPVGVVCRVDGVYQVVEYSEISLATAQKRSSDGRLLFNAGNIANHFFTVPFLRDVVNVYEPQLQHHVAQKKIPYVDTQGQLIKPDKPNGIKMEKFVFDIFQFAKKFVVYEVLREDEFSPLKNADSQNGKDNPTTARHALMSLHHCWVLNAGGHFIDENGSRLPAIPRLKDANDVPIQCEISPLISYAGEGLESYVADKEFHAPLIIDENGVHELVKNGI

Structure (SMILES) | IC50 (AGX1/UAP1) [µM] | IC50 (GALT [1]) [µM] | Ki (GALT [2]) [µM] | IC50 (UGP2 [3]) [µM] | Enzyme Inhibitory Activity / UGP2 (UGP2 [4]) [%] | Enzyme Inhibitory Activity / GALT (GALT [5]) [%]
CN1C(=O)C(C)(C)c2cc(-c3ccnc(N)n3)ccc21 [GAL-012] | 30 | 30 | ~30 | 30 |  | 
CN(C)/C=C/C(=O)c1ccc2c(c1)C(C)(C)C(=O)N2C [GAL-012-2] |  |  |  |  | 63.8 ± 4 | 63.4 ± 2.3
